Earlier results on one molecule are cited in patent publication US10595479B2, “Induced mutagenesis” (Purdue Research Foundation, priority 2014, dated 2020).

For this data set, the system named is maize. To be noted: pollen EMS protocol in maize, tested molecularly.

On to `CCOS(C)(=O)=O` [EMS, ethyl methanesulfonate], for which the density of mutations entry was “about 2 mutations per Mb of DNA”.
